The text below walks through data of paper PMC6934184, “Selective DNA-PKcs inhibition extends the therapeutic index of localized radiotherapy and chemotherapy” (The Journal of Clinical Investigation, 2019).

Molecules are shown by their SMILES.

Broadly, the inhibition is the change of the read-out against control, counted positive when it falls.

The target in this test is T1, GRK5 (Homo sapiens, UniProt P34947).
T1 construct: purchased Thermo Fisher Scientific (Life Technologies) SelectScreen
The test can be described thus: SelectScreen Z'LYTE. Type of test: biochemical. The method, boiled down: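 Compound tested in SelectScreen activity assays, Z'LYTE for CSF1R, CDK1/cyclin B and MAP2K6 and Adapta for CAMK1. ATP for CAMK1 was listed as 10, and Km app was used for CSF1R. Results are expressed in percent.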

T1 sequence (P34947 whole entry): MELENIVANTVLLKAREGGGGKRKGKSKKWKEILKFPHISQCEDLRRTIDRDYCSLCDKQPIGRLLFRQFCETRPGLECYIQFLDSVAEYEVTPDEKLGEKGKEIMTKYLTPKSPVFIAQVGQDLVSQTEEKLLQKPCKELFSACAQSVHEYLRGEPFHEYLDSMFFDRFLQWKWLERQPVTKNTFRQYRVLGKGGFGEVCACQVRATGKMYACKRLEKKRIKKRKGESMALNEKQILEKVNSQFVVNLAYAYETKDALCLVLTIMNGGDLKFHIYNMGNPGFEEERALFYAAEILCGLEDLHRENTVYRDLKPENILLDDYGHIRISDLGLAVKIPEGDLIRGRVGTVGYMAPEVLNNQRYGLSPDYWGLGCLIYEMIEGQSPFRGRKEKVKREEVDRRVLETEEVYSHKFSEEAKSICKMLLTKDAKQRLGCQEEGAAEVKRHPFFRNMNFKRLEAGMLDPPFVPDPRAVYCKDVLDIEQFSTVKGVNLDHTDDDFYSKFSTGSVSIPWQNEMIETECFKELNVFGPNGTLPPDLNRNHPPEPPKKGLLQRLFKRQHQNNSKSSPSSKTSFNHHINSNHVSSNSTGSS

On to `CN(C(=O)CN1CCOCC1)c1ccc2sc3c(-c4cccc5c(=O)cc(N6CC7CCC(C6)O7)oc45)cccc3c2c1` [NU5455], for which the inhibition at 1 µM is -3.2%.
